Test results as given in PubChem BioAssay (NCI).
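Where inhibition never reached the appropriate level, the endpoint shown equals the highest concentration tested. Otherwise, values were interpolated linearly from a five-concentration, 48-hour dose response in 96-well plates. At the GI50, growth is halved. TGI denotes the concentration required for complete inhibition of growth.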

Key:
Test in all cases: DTP human tumour cell line panel, 48 h
[1] = system: MALME-3M melanoma
[2] = system: SF-539 CNS
[3] = system: OVCAR-4 ovarian
[4] = system: M14 melanoma
[5] = system: 786-0 renal
[6] = system: KM12 colon
[7] = system: MDA-MB-435
[8] = system: HL-60(TB) leukemia
[9] = system: SK-OV-3 ovarian
[10] = system: DU-145 prostate
[11] = system: NCI-H226 lung
[12] = system: HCC-2998 colon
[13] = system: OVCAR-3 ovarian
[14] = system: UACC-257 melanoma
[15] = system: CCRF-CEM leukemia
[16] = system: A498 renal
[17] = system: HOP-62 NSCLC
[18] = system: SF-295 CNS
[19] = system: CAKI-1 renal
[20] = system: SNB-19 CNS
[21] = system: K-562 leukemia
[22] = system: PC-3 prostate
[23] = system: HCT-15 colon
[24] = system: UO-31 renal
[25] = system: MDA-MB-231 breast
[26] = system: MOLT-4 leukemia
[27] = system: BT-549 breast
[28] = system: RXF 393 renal
[29] = system: SK-MEL-28 melanoma
[30] = system: NCI-H23 lung
[31] = system: HS 578T breast
[32] = system: T-47D breast
[33] = system: COLO 205 colon
[34] = system: LOX IMVI melanoma
[35] = system: TK-10 renal
[36] = system: OVCAR-5 ovarian
[37] = system: MCF7 breast
[38] = system: A549 NSCLC
[39] = system: ACHN renal
[40] = system: HT29 colon
[41] = system: SNB-75 CNS
[42] = system: U251 CNS
[43] = system: SK-MEL-2 melanoma
[44] = system: NCI-H460 lung
[45] = system: UACC-62 melanoma
[46] = system: SR leukemia
[47] = system: NCI/ADR-RES ovarian
[48] = system: IGROV1 ovarian
[49] = system: SF-268 CNS
[50] = system: RPMI-8226 leukemia
[51] = system: HCT-116 colon
[52] = system: NCI-H522 lung
[53] = system: OVCAR-8 ovarian
[54] = system: SK-MEL-5 melanoma
[55] = system: HOP-92 NSCLC
[56] = system: SW-620 colon
[57] = system: EKVX NSCLC
[58] = system: SN12C renal

`O=S1CCN(Cc2ccc(-c3ccc4ncnc(Nc5ccc(OCc6cccc(F)c6)c(Cl)c5)c4c3)o2)CC1` showed a GI50 [1] of 6.01 µM, a TGI [1] of 23.2 µM and a GI50 [2] of 6.54 µM. The TGI [2] was over 20.9 µM, the GI50 [3] was 5.26 µM and the TGI [3] was over 25 µM. For the same molecule, the GI50 [4] was 5.84 µM, the TGI [4] was over 18.6 µM and the GI50 [5] was 6.54 µM. The TGI [5] was over 25 µM, the GI50 [6] was 6.72 µM and the TGI [6] was over 22.8 µM. It also gave a GI50 [7] of 7.1 µM, a TGI [7] of over 25 µM and a GI50 [8] of 6.3 µM. For the same molecule, the TGI [8] was 15.7 µM, the GI50 [9] was 0.00587 µM and the TGI [9] was over 25 µM. For the same molecule, the GI50 [10] was 4.26 µM, the TGI [10] was over 25 µM and the GI50 [11] was 4.4 µM. The TGI [11] was over 25 µM, the GI50 [12] was 5.34 µM and the TGI [12] was 14.7 µM. The GI50 [13] was 4.86 µM, the TGI [13] was over 25 µM and the GI50 [14] was 5.43 µM. The TGI [14] was over 20.5 µM, the GI50 [15] was 6.89 µM and the TGI [15] was 24.8 µM. For the same molecule, the GI50 [16] was 0.862 µM, the TGI [16] was over 16.7 µM and the GI50 [17] was 14.8 µM. For the same molecule, the TGI [17] was over 25 µM, the GI50 [18] was 5.83 µM and the TGI [18] was over 19 µM. For the same molecule, the GI50 [19] was 0.041 µM, the TGI [19] was over 25 µM and the GI50 [20] was over 7.82 µM. For the same molecule, the TGI [20] was over 25 µM, the GI50 [21] was 6.53 µM and the TGI [21] was over 25 µM. The GI50 [22] was 8.91 µM, the TGI [22] was over 25 µM and the GI50 [23] was 5.77 µM. It also gave a TGI [23] of over 25 µM, a GI50 [24] of 0.473 µM and a TGI [24] of 24.9 µM. For the same molecule, the GI50 [25] was 5.19 µM, the TGI [25] was over 16.1 µM and the GI50 [26] was 4.94 µM. It also gave a TGI [26] of over 20.1 µM, a GI50 [27] of 6.2 µM and a TGI [27] of over 23.9 µM. For the same molecule, the GI50 [28] was 3.85 µM, the TGI [28] was over 23.6 µM and the GI50 [29] was 5.75 µM. For the same molecule, the TGI [29] was over 25 µM, the GI50 [30] was 8.42 µM and the TGI [30] was over 25 µM. The GI50 [31] was 4.63 µM, the TGI [31] was over 21.6 µM and the GI50 [32] was 1.95 µM. It also gave a TGI [32] of 18.3 µM, a GI50 [33] of 4.77 µM and a TGI [33] of 13.5 µM. It also gave a GI50 [34] of 4.65 µM, a TGI [34] of 10.5 µM and a GI50 [35] of 0.00776 µM. For the same molecule, the TGI [35] was over 16.3 µM, the GI50 [36] was 5.8 µM and the TGI [36] was over 25 µM. It also gave a GI50 [37] of 6.1 µM, a TGI [37] of over 25 µM and a GI50 [38] of 5.92 µM. The TGI [38] was over 25 µM, the GI50 [39] was 0.082 µM and the TGI [39] was over 25 µM. The GI50 [40] was 4.22 µM, the TGI [40] was 10.8 µM and the GI50 [41] was 7.92 µM. For the same molecule, the TGI [41] was over 25 µM, the GI50 [42] was 9.4 µM and the TGI [42] was over 25 µM. It also gave a GI50 [43] of 4.41 µM, a TGI [43] of 9.97 µM and a GI50 [44] of 7.62 µM. It also gave a TGI [44] of over 25 µM, a GI50 [45] of 4.12 µM and a TGI [45] of 10.6 µM. The GI50 [46] was 5.38 µM, the TGI [46] was 17.5 µM and the GI50 [47] was 4.82 µM. The TGI [47] was over 25 µM, the GI50 [48] was 0.226 µM and the TGI [48] was 5.29 µM. It also gave a GI50 [49] of 8.56 µM, a TGI [49] of over 25 µM and a GI50 [50] of 6.65 µM. It also gave a TGI [50] of over 22.8 µM, a GI50 [51] of 8.66 µM and a TGI [51] of over 25 µM. It also gave a GI50 [52] of 0.647 µM, a TGI [52] of 15.8 µM and a GI50 [53] of 7.68 µM. It also gave a TGI [53] of over 25 µM, a GI50 [54] of 3.09 µM and a TGI [54] of 6.42 µM. For the same molecule, the GI50 [55] was 3.95 µM, the TGI [55] was 22.4 µM and the GI50 [56] was 7.34 µM. For the same molecule, the TGI [56] was over 25 µM, the GI50 [57] was 0.0304 µM and the TGI [57] was over 25 µM. It also gave a GI50 [58] of 7.77 µM and a TGI [58] of over 25 µM.
